Source: publication PMC2064598 (The Journal of Cell Biology, 2006)

Experiments:
mGrA = target: T1, mGrA (Mus musculus, UniProt P11032); assay: absorbance progress curve; type: biochemical
T1 sequence (P11032 29-260): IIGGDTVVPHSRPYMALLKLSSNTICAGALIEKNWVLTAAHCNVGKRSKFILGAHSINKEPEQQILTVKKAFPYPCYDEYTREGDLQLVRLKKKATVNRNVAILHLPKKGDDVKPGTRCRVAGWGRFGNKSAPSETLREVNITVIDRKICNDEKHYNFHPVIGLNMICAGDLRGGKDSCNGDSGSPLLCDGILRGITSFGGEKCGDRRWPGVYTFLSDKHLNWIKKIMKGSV

hGrA = target: T2, hGrA (Homo sapiens, UniProt P12544); assay: absorbance progress curve; type: biochemical
T2 sequence (P12544 29-262): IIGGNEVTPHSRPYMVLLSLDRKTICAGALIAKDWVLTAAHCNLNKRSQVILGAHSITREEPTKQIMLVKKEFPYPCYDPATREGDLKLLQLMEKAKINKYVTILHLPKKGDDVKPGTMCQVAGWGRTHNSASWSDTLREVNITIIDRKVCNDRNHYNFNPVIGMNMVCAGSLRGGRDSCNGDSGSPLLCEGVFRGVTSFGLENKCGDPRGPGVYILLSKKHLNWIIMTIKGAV

SMILES: NCCCC[C@H](NC(=O)OCc1ccccc1)C(=O)SCc1ccccc1 [benzyloxy-carbonyl-Lys-thiobenzyl ester]
- specific activity (mGrA): Progress curves of mGrA (closed boxes) and hGrA (open boxes) cleaving benzyloxy-carbonyl-Lys-thiobenzyl ester
- specific activity (hGrA): Progress curves of mGrA (closed boxes) and hGrA (open boxes) cleaving benzyloxy-carbonyl-Lys-thiobenzyl ester
